From paper PMC11167047 (Cell Death Discovery, 2024)

Tests used:
Assay in all cases: kinome screen (33PanQinase)
Format in all cases: biochemical
[1] = target: T1, MERTK (Homo sapiens, UniProt Q12866)
T1 construct: purchased Reaction Biology Europe GmbH (formerly ProQinase)
T1 sequence (Q12866 21-999): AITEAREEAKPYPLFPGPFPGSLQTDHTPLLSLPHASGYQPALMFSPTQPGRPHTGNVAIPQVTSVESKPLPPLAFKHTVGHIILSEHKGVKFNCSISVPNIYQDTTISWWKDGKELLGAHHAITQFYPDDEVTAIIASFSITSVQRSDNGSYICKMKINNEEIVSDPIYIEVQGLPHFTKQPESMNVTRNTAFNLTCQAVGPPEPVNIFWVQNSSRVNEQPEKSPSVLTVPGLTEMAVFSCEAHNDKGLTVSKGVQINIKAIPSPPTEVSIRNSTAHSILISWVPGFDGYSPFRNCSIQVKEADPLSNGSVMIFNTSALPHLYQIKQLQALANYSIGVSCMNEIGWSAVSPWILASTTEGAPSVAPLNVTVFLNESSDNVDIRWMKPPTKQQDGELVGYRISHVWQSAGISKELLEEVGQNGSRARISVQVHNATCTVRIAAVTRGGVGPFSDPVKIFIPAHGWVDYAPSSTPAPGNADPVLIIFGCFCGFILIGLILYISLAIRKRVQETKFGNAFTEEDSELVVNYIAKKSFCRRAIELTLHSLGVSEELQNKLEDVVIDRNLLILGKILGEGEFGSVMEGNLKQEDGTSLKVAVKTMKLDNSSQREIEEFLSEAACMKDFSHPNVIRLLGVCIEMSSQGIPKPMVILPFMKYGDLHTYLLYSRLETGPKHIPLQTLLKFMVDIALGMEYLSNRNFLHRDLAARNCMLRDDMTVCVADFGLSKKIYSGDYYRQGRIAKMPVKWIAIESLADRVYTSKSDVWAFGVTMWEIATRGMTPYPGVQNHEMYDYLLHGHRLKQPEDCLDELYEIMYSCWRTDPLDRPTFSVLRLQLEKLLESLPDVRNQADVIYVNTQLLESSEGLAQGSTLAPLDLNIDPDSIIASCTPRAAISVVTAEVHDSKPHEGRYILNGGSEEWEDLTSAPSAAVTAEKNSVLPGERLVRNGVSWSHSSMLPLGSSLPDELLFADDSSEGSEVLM
Procedure: (§1) The Kinome Screening was performed by Reaction Biology Europe GmbH (http://reactionbiology.com; Freiburg i. Br., Germany).

[2] = target: T2, PDK1 (Homo sapiens, UniProt O15530)
T2 construct: purchased Reaction Biology Europe GmbH (formerly ProQinase)
T2 sequence (O15530 1-556): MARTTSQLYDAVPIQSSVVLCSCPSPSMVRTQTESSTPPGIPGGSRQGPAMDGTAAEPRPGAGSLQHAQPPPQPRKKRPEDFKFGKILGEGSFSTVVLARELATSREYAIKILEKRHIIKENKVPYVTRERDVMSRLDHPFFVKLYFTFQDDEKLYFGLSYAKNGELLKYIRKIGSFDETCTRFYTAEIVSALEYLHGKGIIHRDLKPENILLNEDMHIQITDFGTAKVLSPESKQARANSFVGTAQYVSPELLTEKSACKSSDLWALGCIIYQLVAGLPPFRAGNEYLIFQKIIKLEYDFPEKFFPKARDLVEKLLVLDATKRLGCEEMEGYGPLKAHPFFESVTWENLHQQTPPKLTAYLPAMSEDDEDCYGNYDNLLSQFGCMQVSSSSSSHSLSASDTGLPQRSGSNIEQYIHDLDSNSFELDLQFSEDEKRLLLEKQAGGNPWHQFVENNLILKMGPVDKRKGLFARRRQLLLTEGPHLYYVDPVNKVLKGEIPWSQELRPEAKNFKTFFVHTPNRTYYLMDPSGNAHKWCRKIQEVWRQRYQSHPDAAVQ
Procedure: as §1

[3] = target: T3, RET (Homo sapiens, UniProt P07949)
T3 construct: purchased Reaction Biology Europe GmbH (formerly ProQinase)
T3 sequence (P07949 29-1114): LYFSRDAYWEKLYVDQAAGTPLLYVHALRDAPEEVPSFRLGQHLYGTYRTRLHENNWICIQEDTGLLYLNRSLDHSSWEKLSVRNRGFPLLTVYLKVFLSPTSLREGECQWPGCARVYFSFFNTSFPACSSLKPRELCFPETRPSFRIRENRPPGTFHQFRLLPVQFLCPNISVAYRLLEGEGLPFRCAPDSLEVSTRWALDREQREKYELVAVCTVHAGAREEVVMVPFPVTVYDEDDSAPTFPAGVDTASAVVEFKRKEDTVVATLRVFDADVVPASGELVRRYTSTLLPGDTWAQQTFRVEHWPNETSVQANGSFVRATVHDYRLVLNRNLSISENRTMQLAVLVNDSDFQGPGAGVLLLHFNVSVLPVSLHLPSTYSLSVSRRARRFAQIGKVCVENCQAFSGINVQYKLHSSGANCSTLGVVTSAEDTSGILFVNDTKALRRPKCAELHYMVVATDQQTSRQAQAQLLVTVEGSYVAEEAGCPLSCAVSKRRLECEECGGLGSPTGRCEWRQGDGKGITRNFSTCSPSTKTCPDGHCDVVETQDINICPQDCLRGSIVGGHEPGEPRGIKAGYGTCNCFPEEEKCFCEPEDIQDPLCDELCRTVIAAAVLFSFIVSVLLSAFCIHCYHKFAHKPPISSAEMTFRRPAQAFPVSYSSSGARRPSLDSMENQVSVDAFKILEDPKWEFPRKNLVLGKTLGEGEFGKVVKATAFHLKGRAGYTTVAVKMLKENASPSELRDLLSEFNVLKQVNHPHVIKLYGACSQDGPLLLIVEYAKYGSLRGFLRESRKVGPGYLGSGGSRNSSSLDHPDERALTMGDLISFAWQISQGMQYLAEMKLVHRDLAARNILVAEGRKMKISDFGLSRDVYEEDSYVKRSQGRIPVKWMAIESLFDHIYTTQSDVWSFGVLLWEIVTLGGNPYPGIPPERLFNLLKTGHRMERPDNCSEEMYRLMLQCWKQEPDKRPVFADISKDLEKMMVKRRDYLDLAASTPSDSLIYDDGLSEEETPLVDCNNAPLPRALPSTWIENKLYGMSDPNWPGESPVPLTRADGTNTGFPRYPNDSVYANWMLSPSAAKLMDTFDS
Procedure: as §1

[4] = target: T4, STK25 (Homo sapiens, UniProt O00506)
T4 construct: purchased Reaction Biology Europe GmbH (formerly ProQinase)
T4 sequence (O00506 whole entry): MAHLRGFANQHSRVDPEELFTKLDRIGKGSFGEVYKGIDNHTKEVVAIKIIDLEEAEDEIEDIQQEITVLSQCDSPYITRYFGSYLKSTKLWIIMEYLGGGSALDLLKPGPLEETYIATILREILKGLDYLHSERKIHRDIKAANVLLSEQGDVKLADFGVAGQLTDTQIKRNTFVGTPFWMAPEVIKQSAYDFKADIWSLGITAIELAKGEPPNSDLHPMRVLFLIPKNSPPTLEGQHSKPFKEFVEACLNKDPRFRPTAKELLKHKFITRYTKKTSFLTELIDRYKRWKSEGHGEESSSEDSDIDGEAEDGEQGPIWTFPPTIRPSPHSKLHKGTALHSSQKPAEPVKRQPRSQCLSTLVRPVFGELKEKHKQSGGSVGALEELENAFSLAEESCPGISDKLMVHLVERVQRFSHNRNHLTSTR
Procedure: as §1

[5] = target: T5, TTK (Homo sapiens, UniProt P33981)
T5 construct: purchased Reaction Biology Europe GmbH (formerly ProQinase)
T5 sequence (P33981 1-857): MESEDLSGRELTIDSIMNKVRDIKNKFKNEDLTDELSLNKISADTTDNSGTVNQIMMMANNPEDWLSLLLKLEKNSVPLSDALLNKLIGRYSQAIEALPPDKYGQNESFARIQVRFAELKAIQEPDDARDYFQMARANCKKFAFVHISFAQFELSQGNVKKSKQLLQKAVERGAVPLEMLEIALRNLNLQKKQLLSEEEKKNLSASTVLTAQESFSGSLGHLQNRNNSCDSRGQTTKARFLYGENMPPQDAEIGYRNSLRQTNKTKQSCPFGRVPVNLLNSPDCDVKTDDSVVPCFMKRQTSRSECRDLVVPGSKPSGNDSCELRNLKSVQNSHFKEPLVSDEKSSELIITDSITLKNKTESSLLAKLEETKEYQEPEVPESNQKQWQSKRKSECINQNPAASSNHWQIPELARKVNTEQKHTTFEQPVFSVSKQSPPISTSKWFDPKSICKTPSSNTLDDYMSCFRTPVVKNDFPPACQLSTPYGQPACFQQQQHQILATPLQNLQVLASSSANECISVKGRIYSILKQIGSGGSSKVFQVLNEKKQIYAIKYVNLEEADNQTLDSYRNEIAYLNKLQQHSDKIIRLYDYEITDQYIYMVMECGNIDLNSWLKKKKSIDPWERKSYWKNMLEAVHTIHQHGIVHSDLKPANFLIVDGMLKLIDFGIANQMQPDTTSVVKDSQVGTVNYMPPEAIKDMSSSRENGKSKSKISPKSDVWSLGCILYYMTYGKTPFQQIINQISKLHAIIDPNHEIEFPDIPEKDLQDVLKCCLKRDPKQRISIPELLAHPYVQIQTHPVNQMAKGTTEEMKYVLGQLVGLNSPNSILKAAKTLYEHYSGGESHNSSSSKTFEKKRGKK
Procedure: as §1

[6] = target: T6, VEGFR3 (Homo sapiens, UniProt P35916)
T6 construct: purchased Reaction Biology Europe GmbH (formerly ProQinase)
T6 sequence (P35916 25-1363): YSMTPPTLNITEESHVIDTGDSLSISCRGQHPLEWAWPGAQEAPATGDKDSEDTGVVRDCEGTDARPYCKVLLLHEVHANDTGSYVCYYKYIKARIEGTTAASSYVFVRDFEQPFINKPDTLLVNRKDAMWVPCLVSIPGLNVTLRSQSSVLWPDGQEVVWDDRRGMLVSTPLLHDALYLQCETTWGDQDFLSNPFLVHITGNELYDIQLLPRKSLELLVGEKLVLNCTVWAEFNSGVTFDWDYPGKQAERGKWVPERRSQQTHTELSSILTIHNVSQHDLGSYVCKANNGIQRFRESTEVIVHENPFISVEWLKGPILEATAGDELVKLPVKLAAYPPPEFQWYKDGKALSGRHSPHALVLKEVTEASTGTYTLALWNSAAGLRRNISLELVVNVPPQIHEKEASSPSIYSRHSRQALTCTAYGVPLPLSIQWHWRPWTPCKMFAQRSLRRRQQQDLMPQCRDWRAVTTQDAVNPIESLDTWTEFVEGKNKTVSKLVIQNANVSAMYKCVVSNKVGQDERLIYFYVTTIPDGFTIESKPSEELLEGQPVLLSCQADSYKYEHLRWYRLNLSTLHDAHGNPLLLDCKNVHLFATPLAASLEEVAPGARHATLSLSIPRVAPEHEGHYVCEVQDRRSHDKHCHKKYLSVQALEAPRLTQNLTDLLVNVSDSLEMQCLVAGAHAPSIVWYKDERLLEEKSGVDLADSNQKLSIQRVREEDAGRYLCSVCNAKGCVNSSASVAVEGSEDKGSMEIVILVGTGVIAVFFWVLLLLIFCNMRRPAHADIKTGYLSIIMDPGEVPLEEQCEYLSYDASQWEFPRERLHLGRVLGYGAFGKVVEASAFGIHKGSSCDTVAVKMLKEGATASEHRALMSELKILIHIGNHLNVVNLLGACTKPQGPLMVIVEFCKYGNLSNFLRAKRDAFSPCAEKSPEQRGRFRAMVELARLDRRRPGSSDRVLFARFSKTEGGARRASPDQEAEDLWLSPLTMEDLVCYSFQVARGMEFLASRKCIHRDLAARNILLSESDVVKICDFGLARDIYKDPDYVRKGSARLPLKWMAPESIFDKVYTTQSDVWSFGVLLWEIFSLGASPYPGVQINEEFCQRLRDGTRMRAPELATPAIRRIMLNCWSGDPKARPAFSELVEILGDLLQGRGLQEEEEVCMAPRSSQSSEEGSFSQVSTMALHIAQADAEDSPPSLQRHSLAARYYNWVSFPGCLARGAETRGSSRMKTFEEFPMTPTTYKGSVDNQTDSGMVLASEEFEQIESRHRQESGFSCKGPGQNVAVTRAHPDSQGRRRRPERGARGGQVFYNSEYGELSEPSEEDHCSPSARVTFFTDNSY
Procedure: as §1

Structure (SMILES): COc1ccnc2[nH]cc(-c3cc(N)nc(N)c3)c12 [meriolin 16]
- residual kinase activity ([1]; 0.03 µM): 97 % of control
- residual kinase activity ([1]; 0.3 µM): 86 % of control
- residual kinase activity ([2]; 0.03 µM): 98 % of control
- residual kinase activity ([2]; 0.3 µM): 83 % of control
- residual kinase activity ([3]; 0.03 µM): 106 % of control
- residual kinase activity ([3]; 0.3 µM): 100 % of control
- residual kinase activity ([4]; 0.03 µM): 99 % of control
- residual kinase activity ([4]; 0.3 µM): 81 % of control
- residual kinase activity ([5]; 0.03 µM): 49 % of control
- residual kinase activity ([5]; 0.3 µM): 8 % of control
- residual kinase activity ([6]; 0.03 µM): 90 % of control
- residual kinase activity ([6]; 0.3 µM): 77 % of control

Structure (SMILES): c1ccc(CNc2cc(-c3c[nH]c4ncccc34)ccn2)cc1 [meriolin 36]
- residual kinase activity ([1]; 0.3 µM): 69 % of control
- residual kinase activity ([1]; 3 µM): 36 % of control
- residual kinase activity ([2]; 0.3 µM): 160 % of control
- residual kinase activity ([2]; 3 µM): 39 % of control
- residual kinase activity ([3]; 0.3 µM): 61 % of control
- residual kinase activity ([3]; 3 µM): 12 % of control
- residual kinase activity ([4]; 0.3 µM): 33 % of control
- residual kinase activity ([4]; 3 µM): 6 % of control
- residual kinase activity ([5]; 0.3 µM): 55 % of control
- residual kinase activity ([5]; 3 µM): 17 % of control
- residual kinase activity ([6]; 0.3 µM): 64 % of control
- residual kinase activity ([6]; 3 µM): 23 % of control
